Assay results: ChEMBL document CHEMBL1201862, “PubChem BioAssay data set” (2004)
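Grown in 96-well plates, cells were treated for 48 hours with each compound at five concentrations. Insufficient inhibition: endpoint recorded as highest concentration tested. At the GI50, growth is halved.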 Calls of active or inactive are those of the source. Cut-off read from the data, not from the text of the source: active = GI50 up to about 1.1 µM and inactive = higher.

Tests used:
Experiment in all cases: NCI-60 cell line screen, 48 h
U-251 = tested on: U-251
ACHN = tested on: ACHN
T47D = tested on: T47D
SW-620 = tested on: SW-620
KM12 = tested on: KM12
DU-145 = tested on: DU-145
SNB-19 = tested on: SNB-19
HOP-62 = tested on: HOP-62
RPMI-8226 = tested on: RPMI-8226
Malme-3M = tested on: Malme-3M
CAKI-1 = tested on: CAKI-1
HL-60 = tested on: HL-60
SNB-75 = tested on: SNB-75
786-0 = tested on: 786-0
HCT-15 = tested on: HCT-15
NCI-H226 = tested on: NCI-H226
K562 = tested on: K562
SK-OV-3 = tested on: SK-OV-3
CCRF-CEM = tested on: CCRF-CEM
A549 = tested on: A549
HCT-116 = tested on: HCT-116
SK-MEL-2 = tested on: SK-MEL-2
SF-295 = tested on: SF-295
UO-31 = tested on: UO-31
NCI-H460 = tested on: NCI-H460
OVCAR-5 = tested on: OVCAR-5
HOP-92 = tested on: HOP-92
NCI-H23 = tested on: NCI-H23
OVCAR-4 = tested on: OVCAR-4
NCI/ADR-RES = tested on: NCI/ADR-RES
IGROV-1 = tested on: IGROV-1
UACC-257 = tested on: UACC-257
NCI-H522 = tested on: NCI-H522
SF-539 = tested on: SF-539
MDA-N = tested on: MDA-N
BT-549 = tested on: BT-549
M14 = tested on: M14
OVCAR-3 = tested on: OVCAR-3
Hs-578T = tested on: Hs-578T
HCC 2998 = tested on: HCC 2998
LOX IMVI = tested on: LOX IMVI
COLO 205 = tested on: COLO 205
UACC-62 = tested on: UACC-62
SR = tested on: SR
EKVX = tested on: EKVX
RXF 393 = tested on: RXF 393
A498 = tested on: A498
MDA-MB-435 = tested on: MDA-MB-435
SK-MEL-28 = tested on: SK-MEL-28
SN12C = tested on: SN12C
TK-10 = tested on: TK-10
PC-3 = tested on: PC-3
OVCAR-8 = tested on: OVCAR-8
SK-MEL-5 = tested on: SK-MEL-5
SF-268 = tested on: SF-268
MDA-MB-231 = tested on: MDA-MB-231
MOLT-4 = tested on: MOLT-4
HT-29 = tested on: HT-29
MCF7 = tested on: MCF7

CN1C(=O)c2ccccc2OC12C=Cc1c(ccc3ccccc13)O2 (centres undefined)
GI50 (U-251): 3.42 µM (inactive)
GI50 (ACHN): 3.1 µM (inactive)
GI50 (T47D): 5.43 µM (inactive)
GI50 (SW-620): 3.64 µM (inactive)
GI50 (KM12): 2.21 µM (inactive)
GI50 (DU-145): 8 µM (inactive)
GI50 (SNB-19): 4.49 µM (inactive)
GI50 (HOP-62): 4.29 µM (inactive)
GI50 (RPMI-8226): 3.02 µM (inactive)
GI50 (Malme-3M): 0.328 µM (active)
GI50 (CAKI-1): 5.66 µM (inactive)
GI50 (HL-60): 2.99 µM (inactive)
GI50 (SNB-75): 4.84 µM (inactive)
GI50 (786-0): 7.19 µM (inactive)
GI50 (HCT-15): 2.95 µM
GI50 (NCI-H226): 5.94 µM (inactive)
GI50 (K562): 2.82 µM (inactive)
GI50 (SK-OV-3): 5.78 µM (inactive)
GI50 (CCRF-CEM): 3.83 µM (inactive)
GI50 (A549): 3.47 µM (inactive)
GI50 (HCT-116): 4.02 µM (inactive)
GI50 (SK-MEL-2): 3.34 µM (inactive)
GI50 (SF-295): 2.45 µM (inactive)
GI50 (UO-31): 6.52 µM (inactive)
GI50 (NCI-H460): 6.59 µM (inactive)
GI50 (OVCAR-5): 6.47 µM (inactive)
GI50 (HOP-92): 1.85 µM (inactive)
GI50 (NCI-H23): 4.05 µM (inactive)
GI50 (OVCAR-4): 5.56 µM (inactive)
GI50 (NCI/ADR-RES): 2.38 µM (inactive)
GI50 (IGROV-1): 3.5 µM (inactive)
GI50 (UACC-257): 8.3 µM (inactive)
GI50 (NCI-H522): 0.682 µM (active)
GI50 (SF-539): 5.58 µM (inactive)
GI50 (MDA-N): 2.36 µM (inactive)
GI50 (BT-549): 5.96 µM (inactive)
GI50 (M14): 3.03 µM (inactive)
GI50 (OVCAR-3): 4.03 µM (inactive)
GI50 (Hs-578T): 3.85 µM (inactive)
GI50 (HCC 2998): 3.95 µM (inactive)
GI50 (LOX IMVI): 5.93 µM (inactive)
GI50 (COLO 205): 3.31 µM (inactive)
GI50 (UACC-62): 5.19 µM (inactive)
GI50 (SR): 3.48 µM (inactive)
GI50 (EKVX): 2.32 µM (inactive)
GI50 (RXF 393): 3.85 µM (inactive)
GI50 (A498): 12.9 µM (inactive)
GI50 (MDA-MB-435): 2.29 µM (inactive)
GI50 (SK-MEL-28): 14.2 µM (inactive)
GI50 (SN12C): 15.2 µM (inactive)
GI50 (TK-10): 7.82 µM (inactive)
GI50 (PC-3): 3.27 µM (inactive)
GI50 (OVCAR-8): 3.74 µM (inactive)
GI50 (SK-MEL-5): 6.05 µM (inactive)
GI50 (SF-268): 3.78 µM (inactive)
GI50 (MDA-MB-231): 13.1 µM (inactive)
GI50 (MOLT-4): 3.53 µM (inactive)
GI50 (HT-29): 2.92 µM (inactive)
GI50 (MCF7): 4.4 µM (inactive)
